Experimental data taken from US12042500B2, “Mucoadhesive drug delivery system for ocular administration of fluoroquinolone antibiotics” (HYDERABAD EYE RESEARCH FOUNDATION, priority 2018, dated 2024).
Marks after values point to notes of the source that are not given here.

Experiments:
[1] = In vitro drug release study, Franz diffusion cell with dialysis membrane; format: physicochemical; conditions: PBS pH 7.4, 33±1° C., 2 mg drug in donor
Method: In vitro release of drugs was performed using Franz diffusion cell apparatus (Permegear Inc., USA). […] The donor compartment was loaded with 2 mg of drug containing polymeric hydrogel or standard drug solution or marketed formulation. […] Samples were analyzed using HPLC method described above.

excised human cornea = tested on: excised human cornea
Method: HPLC analysis was performed using Shimadzu Prominence UFLC, LC-20 system (Shimadzu, Japan) with a C18 column (Shimpack GIST column, 5 μm, 4.6×250 mm). The mobile phase used for besifloxacin analysis comprised of a mixture of 0.5% triethylamine solution (pH adjusted to 3.0 with 10% ortho-phosphoric acid) and acetonitrile (ACN) (74:26, v/v) (Costa et al, 2014). […] The injection volume was 50 μl for all the standards and test solutions. The flow rate and column temperature were maintained at 1.0 ml/min and 25° C., respectively. […] The amount of drug release was determined using respective standard calibration curves.
Excised human cornea was washed with PBS and mounted between donor and receptor compartments with epithelial side facing donor chamber. Receptor medium contained PBS maintained at 37±1° C. temperature using heated water circulator unit. The donor compartment was charged with 0.4% of drug containing polymeric hydrogel, standard drug solution or marketed formulation. Samples (300 μl) were withdrawn from the receptor chamber at predetermined time intervals including 0.5, 1, 2, 4, 6, 12 and 24 h. Samples were analyzed by HPLC method described above. […] Corneal permeation parameters were calculated from cumulative amount of drug permeated vs. time profile. Flux (J) was calculated from the slope of the linear portion of cumulative amount of permeated vs. time profile. Lag time (ttag) was calculated by extrapolating the linear portion of the curve to time axis. Permeability coefficient (Kp) was calculated using Equation 1.

[2] = tested on: Staphylococcus aureus (ATCC 25923) infected human cornea; assay: Antibacterial activity in ex vivo corneal infection model; format: cell-based; conditions: infected cornea incubated 30 min with 0.4% formulation, then 24 h; 10^−7 dilution; n=3
Method: Human corneas were incubated in antibiotic free DMEM media overnight at 37° C. […] After 24 h incubation at 37° C., the infected corneas were washed again with PBS and used for further studies. The infection-free corneas were used as controls (Pinnock, et. al, 2017). Infected cornea was washed, and a metal ring was placed on the corneoscleral button, creating a watertight seal. Drug formulations (0.4%) were added to the center of the ring and incubated for 0.5 and 1.5 h at 37° C. Later, the corneas were washed thoroughly with PBS to remove the excess formulation and incubated for 24 h at 37° C. The cornea was then homogenized, and the resulting suspension was serially diluted. A 10 μl sample was spotted on agar plates at 10^−5, 10^−6, 10^−7, 10^−8 dilutions for colony enumeration. The colonies were counted visually and expressed in colony forming units (CFU) using Equation 2. The antibacterial activity of drugs loaded in hydrogel formulations was evaluated against Staphylococcus aureus (ATCC 25923) infected human cornea (n=3).

| Time to 100% release / complete diffusion across the membrane [1] | Permeability coefficient (excised human cornea) | Diffusion coefficient (excised human cornea; human, 0.4 %) | Flux (excised human cornea; human, 0.4 %) | Lag time (excised human cornea; human, 0.4 %) | Corneal tissue concentration (excised human cornea; human, 0.5 h, 0.4 %) | Cumulative amount permeated (excised human cornea; human, 24 h, 0.4 %) | Cumulative amount permeated across cornea (excised human cornea; human, 24 h, 0.4 %) | Structure (SMILES) | CFU/ml [2] |
| --- | --- | --- | --- | --- | --- | --- | --- | --- | --- |
| ≤ 10 h | 15.57 ×10^−3, cm^2/h | 21.34 ×10^−3 | 36.80 ± 13.99 μg/cm^2/h | 1.22 ± 0.39 h | 398±50 μg/gram of tissue | 1267.42 ± 37.56 μg/cm^2 | 1267 ± 38 µg | N[C@@H]1CCCCN(c2c(F)cc3c(=O)c(C(=O)O)cn(C4CC4)c3c2Cl)C1 [Besifloxacin Std., besifloxacin] | 2.5 ± 0.82 CFU/ml (×10^9) |
| – | – | – | – | – | – | – | – | C[C@H]1COc2c(N3CCN(C)CC3)c(F)cc3c(=O)c(C(=O)O)cn1c23 [Levofloxacin Std., levofloxacin] | 8.3 ± 5.10 CFU/ml (×10^9) |
